According to patent US10568937B2, “Formulations of abaloparatide, transdermal patches thereof, and uses thereof” (priority 2016, dated 2020):

Key:
[1] = test system: ovariectomy-induced osteopenic rats and monkeys; conditions: cited from earlier work
[2] = Subcutaneous 80 μg abaloparatide versus placebo: fractures, BMD, TBS; assay type: in vivo; conditions: subcutaneous administration
Protocol: In certain embodiments, the abaloparatide-SC treatment comprises subcutaneous administration of an aqueous formulation comprising abaloparatide (about 2 mg/mL) in an acetate buffer, with a pH of about 4.5 to about 5.6, or about 5.1. Optionally, the aqueous formulation further comprises phenol (about 5 mg/mL). In certain examples of these embodiments, the acetate buffer comprises tri-hydrate sodium acetate (about 5 mg/mL) with pH (e.g., about 4.5 to about 5.6, or about 5.1) adjusted with acetic acid. Unless specifically stated otherwise, comparative abaloparatide sc dose use an 80 μg dose delivered subcutaneously to the periumbilicular region of the abdomen of the patient.

rat femur fracture model = experiment: Rat femur fracture model, fracture healing; assay type: in vivo
Text: Certain embodiments of the methods disclosed herein also include the use of the microprojection arrays as described herein in their various embodiments to accelerate fracture healing in a patient who has suffered one or more fractures and for which the fractures are not completely healed. Healing of bone fractures (eg long bone fractures) involves endochondral and intramembranous bone formation, which together form a callus that achieves union, stabilization, and gradual recovery of bone strength. […] Sixteen rats from each group were necropsied after 4 and 6 weeks of healing, with 12 fractured femurs per group used for micro-CT and biomechanical testing and the other 4 femurs used for micro-CT and histology.

[Glu^22,25, Leu^23,28,31, Aib^29, Lys^26,30]hPTHrP(1-34)NH2 [abaloparatide]
bone loss [1]: complete reversal of bone loss
BMD and/or TBS at the lumbar spine, total hip, and femoral neck [2]: improve
callus stiffness, higher vs VEH (rat femur fracture model; 5 ug/kg/d, week 4, three-point bending): 60%
callus stiffness, higher vs VEH (rat femur fracture model; 5 ug/kg/d, week 6): 112%
callus peak load, higher vs VEH (rat femur fracture model; 25 ug/kg/d, week 4): 77%
callus stiffness, higher vs VEH (rat femur fracture model; 25 ug/kg/d, week 4, three-point bending): 96%
callus area (histomorphometry) (rat femur fracture model; 5 and 25 ug/kg/d, week 4, vs VEH): significantly greater callus area
callus bone volume, bone volume fraction, and BMC (micro-CT) (rat femur fracture model; 5 and 25 ug/kg/d, weeks 4 and 6, vs VEH): significantly greater
cortical bridging across the fracture gap (semi-quantitative histologic scoring) (rat femur fracture model; 5 or 25 ug/kg/d sc daily, week 4, vs VEH): significantly greater bridging
callus peak load vs VEH (rat femur fracture model; both abaloparatide groups, week 6): numerically higher
